These results are taken from patent US4628059A, “Dopamine-β-hydroxylase inhibitors” (SmithKlein Beckman Corporation, priority 1985, dated 1986).

Data set [1] addresses T1, dopamine-β-hydroxylase (DBH) (Bos taurus, UniProt P15101).
T1 sequence (P15101 1-610): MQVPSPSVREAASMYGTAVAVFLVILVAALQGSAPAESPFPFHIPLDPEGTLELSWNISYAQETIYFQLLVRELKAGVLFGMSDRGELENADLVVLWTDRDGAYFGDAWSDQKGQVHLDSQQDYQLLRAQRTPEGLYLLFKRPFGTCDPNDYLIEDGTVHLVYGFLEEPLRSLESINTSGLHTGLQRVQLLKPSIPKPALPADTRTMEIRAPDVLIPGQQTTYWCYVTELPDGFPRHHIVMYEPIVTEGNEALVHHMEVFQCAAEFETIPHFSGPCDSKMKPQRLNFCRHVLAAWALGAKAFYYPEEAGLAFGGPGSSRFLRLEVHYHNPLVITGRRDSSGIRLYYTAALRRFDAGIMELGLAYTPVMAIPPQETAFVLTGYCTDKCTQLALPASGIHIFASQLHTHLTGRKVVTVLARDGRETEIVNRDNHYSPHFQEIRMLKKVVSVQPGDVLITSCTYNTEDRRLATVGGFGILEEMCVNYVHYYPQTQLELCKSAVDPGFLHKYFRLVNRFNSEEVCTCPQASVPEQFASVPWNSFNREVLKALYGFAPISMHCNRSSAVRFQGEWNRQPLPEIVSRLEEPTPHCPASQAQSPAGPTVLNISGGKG
Put plainly: in vitro DBH inhibition (conversion of tyramine to octopamine, spectrophotometric at 330 nm). It counts as biochemical. As to the method: Because the compounds of Formulae I and II inhibit DBH activity, they have therapeutic value as diuretic, natriuretic, cardiotonic, antihypertensive and vasodilator agents, as well as antiulcerogenic agents. Listed in Table I are the compounds of the invention and compounds included in the pharmaceutical compositions of the invention and useful in the methods of the invention that were tested for in vitro DBH inhibition by a standard procedure for assaying conversion of tyramine to octopamine in the presence of DBH. J. J. Pisano, et al., Biochem. Biophys. Acta; 43, 566-568 (1960). Octopamine was assayed following sodium periodate oxidation to p-hydroxybenzaldehyde by measuring spectrophotometric absorbance at 330 nm. In Table I, inhibition is given in molar concentration of compound at which DBH activity was halved (IC50). Melting points (mp) are given in °C.

Data set [2] concerns spontaneously hypertensive rats. Kind of data set: mean arterial blood pressure in spontaneously hypertensive rats. The conditions noted are these: 50 mg/kg intraperitoneally, monitored for 260 minutes, tail artery cannulae. Format: in vivo. As to the method: Further, spontaneously hypertensive rats were dosed with a suspension or solution of 4-(3'-fluorobenzyl)-1,2,4-triazole-3-thiol at a dose of 50 mg/kg intraperitoneally, and mean arterial blood pressure was monitored for 260 minutes using indwelling cannulae positioned in the tail arteries.

In data set [3] the test system is peripheral dopamine (DA) and norepinephrine (NE) levels. Kind of data set: effect in vivo on peripheral dopamine (DA) and norepinephrine (NE) levels. The conditions noted are these: oral, two doses approx. 18 h apart, sacrificed about 2 h after second dose, fusaric acid 50 mg/kg; for DA / NE: average of groups of five; for DA: control (saline) 0.314; for DA / DA/NE Ratio: * p <.001 for both compounds; for NE: control (saline) 9.98; for DA/NE Ratio: control (saline) 0.0314. Details: species or system spontaneously hypertensive rats. The procedure:
One of the compounds of the invention was tested for its effect in vivo on peripheral dopamine (DA) and norepinephrine (NE) levels substantially by the procedure of DaPrada and Zurcher, Life Sciences, 19, 1161, (1976). Groups of five spontaneously hypertensive rats were dosed orally, twice, the second dose approximately 18 hours after the first, and were sacrificed about 2 hours after the second dose.

The test system of a further data set is DBH. Conditions: literature, cited from earlier work.
For data set [4] the following is noted: Ehrreich et al., literature; cited from earlier work.
For data set [5] the following is noted: literature; cited from earlier work.
Setting [6] is: in vitro, tyramine to octopamine conversion, read-out: IC50 (molar concentration of compound at which DBH activity was halved).

Read-outs that look alike come from different tables or passages of the source.

In the case of `Oc1c(F)cc(Cn2cnnc2S)cc1F` [4-(3',5'-difluoro-4'-hydroxybenzyl)-1,2,4-triazole-3-thiol], the IC50 in data set [1] (setting [6]) is 0.02 µM.
On the same count and under the same terms, as for `COc1c(F)cc(Cn2cnnc2S)cc1F` [4-(3',5'-difluoro-4'-methoxybenzyl)-1,2,4-triazole-3-thiol], the figure is 19 µM.
The same measure, in the same setting: as for `Fc1cc(F)cc(Cn2cnnc2S)c1` [4-(3',5'-difluorobenzyl)-1,2,4-triazole-3-thiol], the figure is 1 µM.
With `Fc1cccc(Cn2cnnc2S)c1` [4-(3'-fluorobenzyl)-1,2,4-triazole-3-thiol], the “mean arterial blood pressure reduction compared to vehicle-treated controls” value in data set [2] was “statistically significant blood pressure reductions at 60, 140, 160, 200, and 240 minutes”. For the same compound, the IC50 in data set [1] (setting [6]) was 2.7 µM. In data set [3], the DA is 0.958 µg/g, the NE came to 8.46 µg/g and the “DA/NE Ratio” value is recorded as 0.114.
On to `Sc1nncn1Cc1ccccc1` [4-benzyl-1,2,4-triazole-3-thiol], for which, in data set [1] (setting [6]), the IC50 was 24 µM.
For `O=C(O)c1ccc(CCC(Br)CBr)cn1` (stereo not shown) [5-(3,4-dibromobutyl)picolinic acid], the “DBH inhibition (in words)” value in the data set on DBH is “DBH inhibitors”.
For `O=C(O)c1ccc(CCCCCl)cn1` [5-(4-chlorobutyl)picolinic acid], in the data set on DBH, the “DBH inhibition (in words)” value was “inhibit DBH”.
For the compound `CN(C)C(=S)SCc1ccc(C(=O)O)nc1` [5-(dimethyldithiocarbamoylmethyl)picolinic acid], in the data set with DBH, the “DBH inhibition (in words)” value is “DBH inhibitors”.
Consider `Nc1ccc(C(=O)O)nc1` [5-aminopicolinic acid], for which, in the data set on DBH, the “DBH inhibition (in words)” value was “inhibit DBH”.
As for `CCCC(=O)c1ccc(C(=O)O)nc1` [5-butyroylpicolinic acid], the “DBH inhibition (in words)” value in the data set on DBH is “inhibit DBH”.
As for `NNc1ccc(C(=O)O)nc1` [5-hydrazinopicolinic acid], the “DBH inhibition (in words)” value in the data set with DBH is given as “inhibit DBH”.
In the case of `NOCc1ccccc1` [Benzyloxyamine, benzyloxyamine], the “DBH inhibition (in words)” value in the data set on DBH is listed as “apparently act as competitive inhibitors”.
Consider `CCCCc1ccc(C(N)=O)nc1` [Bupicomide, 5-(n-butyl)picolinamine], for which, in the data set with DBH, the “DBH inhibition (in words)” value was “DBH inhibitor”. The antihypertensive activity result in data set [4] is reported as “antihypertensive activity”.
With `CCCCc1ccc(C(=O)O)nc1` [Fusaric acid], the toxicity entry in data set [5] is “hepatotoxic”. This compound also came in with an IC50 in data set [1] of 0.8 µM. For the same compound, in data set [3], the DA was 0.715 µg/g, the NE worked out at 8.19 µg/g and the “DA/NE Ratio” value amounted to 0.0875.
For the compound `NNCc1ccccc1` [benzylhydrazine], in the data set with DBH, the “DBH inhibition (in words)” value is “apparently act as competitive inhibitors”.
As for phenylpicolinic acid, the “DBH inhibitory activity relative to fusaric acid” value in the data set with DBH (Runti et al.) was “twice the inhibitory activity of fusaric acid”.
